Non-standard residues stand in square brackets, D forms with d. No end group written: not given here. pS = N[C@@H](COP(=O)(O)O)C(=O)O
Experiments:
NMDA receptors = experiment: Whole-cell voltage clamp: mGluR5-SIC, NMDA receptor dependence; type: cell-based
GST-Pin1 = type: binding; settings: mGluR5 expressed in HEK293 cells
mGluR5-SIC [1] = type: cell-based, mouse; settings: Homer1−/−Homer2−/−Homer3−/− neurons; for effect of Pin1 peptide on BDNF potentiation of mGluR5-SIC: 0.5 μM in the pipette, n = 5
Homer1a [2] = biological target: T1, Homer1a (Rattus norvegicus, UniProt Q9Z214); experiment: Homer1a induction in cultured striatal neurons; type: cell-based; settings: 30 min, 50 mM KCl
T1 sequence (Q9Z214 1-186 isoform Q9Z214-3): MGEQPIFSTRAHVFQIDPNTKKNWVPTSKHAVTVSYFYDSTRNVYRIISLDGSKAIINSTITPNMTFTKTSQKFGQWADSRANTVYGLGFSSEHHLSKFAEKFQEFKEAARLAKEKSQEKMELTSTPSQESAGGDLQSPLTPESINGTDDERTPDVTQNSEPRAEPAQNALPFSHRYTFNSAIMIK

Homer1a [3] = biological target: T1, Homer1a; experiment: ITC of mGluR5 peptide into full length Homer1a; type: binding; settings: versus unphosphorylated peptide
Pin1 = Pin1 (Homo sapiens, UniProt Q13526); experiment: 15N ZZ-exchange NMR: Pin1-catalyzed cis/trans isomerization of mGluR5 peptide; type: biochemical; settings: Homer1a equimolar to peptide; Pin1 sub-stoichiometric (1:10)
mGluR5 [4] = settings: bath application, 5 μM
mGluR5-SIC [5] = experiment: Whole-cell voltage clamp: SKF38393; type: cell-based, mouse
[6] = test system: corticostriatal synapse depotentiation; experiment: Field potential recording: depotentiation of corticostriatal LTP; set-up: species or system mouse; settings: SKF38393 3 μM
mGluR5 [7] = experiment: mGluR5 phosphorylation and Homer1a expression in mouse striatum; type: in vivo
Pin1-mGluR5 = experiment: Pin1 co-immunoprecipitation with mGluR5 from mouse striatum; type: in vivo
[8] = test system: locomotor activity of mice; experiment: Cocaine locomotion and motor sensitization; type: in vivo, mouse
[9] = test system: glutamate and dopamine in the nucleus accumbens; experiment: In vivo microdialysis: glutamate and dopamine in nucleus accumbens; set-up: species or system mouse
[10] = 20 mg/kg, i.p., mice, n = 6 each group
[11] = i.p. four times, 10 or 30 mg/kg
[12] = 10 mg/kg, WT n = 7, Grm5AA/AA n = 9

Sequence of Pin1 (Q13526 whole entry, species assumed): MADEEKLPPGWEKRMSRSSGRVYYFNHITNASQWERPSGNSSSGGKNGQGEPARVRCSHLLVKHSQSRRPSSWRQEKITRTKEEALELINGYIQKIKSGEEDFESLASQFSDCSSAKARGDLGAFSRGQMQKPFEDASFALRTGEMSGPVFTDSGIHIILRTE

CC(C(O)c1ccc(O)cc1)N1CCC(Cc2ccccc2)CC1 (stereo not shown) [ifenprodil]
block of mGluR5-SIC by ifenprodil (NMDA receptors): blocked

C[C@]12N[C@H](Cc3ccccc31)c1ccccc12 [MK-801]
block of mGluR-SIC by MK-801 (NMDA receptors; in the recording pipette): Blockade

mGluR5(S1126A): mutant that prevents phosphorylation at S1126
GST-Pin1 binding to full-length mGluR5 (GST-Pin1): bound

N#CC(=C(/N)Sc1ccccc1N)/C(C#N)=C(/N)Sc1ccccc1N [UO126]
block of BDNF potentiation of mGluR5-SIC by MEK inhibitor (mGluR5-SIC [1]; 20 μM): blocked BDNF potentiation

Ac-FY[pS]PR-NH2 [Pin1 control peptide mimic]
effect of Pin1 peptide on BDNF potentiation of mGluR5-SIC (mGluR5-SIC [1]): not by Pin1 control peptide mimic

N[C@@H](CCCP(=O)(O)O)C(=O)O [APV]
block of mGluR5-SIC by APV (NMDA receptors; 50 μM): blocked

[Cl-].[K+] [KCl]
Homer1a induction (Homer1a [2]): induced Homer1a

COC(=O)[C@@]1(O)C[C@H]2O[C@]1(C)n1c3ccccc3c3c4c(c5c6ccccc6n2c5c31)C(=O)NC4 [K252a]
block of BDNF potentiation of mGluR5-SIC by TrkB inhibitor (mGluR5-SIC [1]; 100 nM): blocked BDNF potentiation

WT mGluR5: full-length mGluR5 expressed in HEK293 cells
GST-Pin1 binding to full-length mGluR5 (GST-Pin1): bound

mGluR5-pS: mGluR5 peptide phosphorylated at S^1126 in vitro (KELVALTPP[pS]PFRD)
increase in Homer1a affinity on S1126 phosphorylation (Homer1a [3]): > 10 fold
Pin1 catalysis of pS1126-P bond in the presence of equimolar Homer1a (Pin1): Pin1 was able to catalyze isomerization of pS^1126-P bond

Cc1cccc(C#Cc2ccccc2)n1 [MPEP, 2-Methyl-6-(phenylethynyl)pyridine]
block of mGluR5-SIC by MPEP (mGluR5 [4]): blocked

Oc1cc2c(cc1O)C(c1ccccc1)CNCC2 (stereo not shown) [SKF38393]
mGluR5-SIC potentiation, D1R-GFP neurons (mGluR5-SIC [5]; SKF38393 1 μM after KCl pretreatment, D1-GFP, n = 8, p < 0.001): robust and consistent potentiation
mGluR5-SIC potentiation, D2-GFP neurons (mGluR5-SIC [5]; SKF38393 1 μM after KCl pretreatment, D2-GFP, n = 10): not D2 receptor-expressing neurons
mGluR5-SIC potentiation, Homer triple knockout neurons (mGluR5-SIC [5]; SKF38393 1 μM, bath, Homer1−/−Homer2−/−Homer3−/− neurons): potentiated
neurons with potentiation of mGluR5-SIC (mGluR5-SIC [5]; SKF38393 1 μM, Homer1−/−Homer2−/−Homer3−/− neurons, p < 0.005): 6 of 13 neurons
depotentiation, pretreatment, WT slices ([6]; 0.5 hrs before HFS, n = 6 and n = 8): prevented depotentiation
depotentiation, pretreatment, Homer1a−/− slices ([6]; 0.5 hrs before HFS, n = 10): failed to block depotentiation
depotentiation, pretreatment, Grm5AA/AA slices ([6]; 0.5 hrs before HFS, n = 12): failed to block depotentiation
depotentiation, acute, WT slices ([6]; beginning 25 min after HFS, n = 4): did not block depotentiation
depotentiation, acute, Grm5R/R slices ([6]; beginning 25 min after HFS, n = 6): did block depotentiation

COC(=O)[C@H]1[C@@H](OC(=O)c2ccccc2)C[C@@H]2CC[C@H]1N2C [cocaine]
mGluR5 phosphorylation, WT and Homer triple knockout (mGluR5 [7]; 10 mg/kg, i.p., 30 min, WT n = 6, Homer1−/−Homer2−/−Homer3−/− n = 7, versus saline): increased mGluR5 phosphorylation
Homer1a expression in striatum (mGluR5 [7]; [10]): induces Homer1a expression
mGluR5 Ser-1126 phosphorylation in striatum (mGluR5 [7]; [10]): induces transient phosphorylation
mGluR5 Thr-1123 phosphorylation in striatum (mGluR5 [7]; [10]): not Thr-1123
double phosphorylation of mGluR5 (mGluR5 [7]; cocaine administration, immunoselection of pT1123): Double phosphorylation is induced
Pin1 co-immunoprecipitation with mGluR5, Homer triple knockout (Pin1-mGluR5; 10 mg/kg, i.p., 30 min, Homer1−/−Homer2−/−Homer3−/− mice): increases after cocaine administration
increase of Pin1 binding, WT mice (Pin1-mGluR5; acute cocaine, WT mice): did not detect an increase of Pin1 binding in WT mice
acute locomotor response, Grm5AA/AA mice ([8]; acute, i.p., 10 or 30 mg/kg): increased locomotor response to acute cocaine
acute locomotor response, Grm5TS/AAPin1+/− double heterozygotes ([8]; acute, i.p., 10 or 30 mg/kg): WT-levels of activity in response to acute cocaine
motor sensitization, Grm5AA/AA mice [8, 11]: markedly reduced sensitization
motor sensitization, Grm5TS/AAPin1+/− double heterozygotes [8, 11]: reduced motor sensitization
motor sensitization, Homer1a−/− mice [8, 11]: profound deficit of cocaine motor sensitization
acute locomotor response, Homer1a−/− mice ([8]; initial dose, i.p. 10 or 30 mg/kg): WT-like response to the initial dose of cocaine
dopamine response, Grm5AA/AA mice, 1st injection [9, 12]: modest reduction
glutamate response, Grm5AA/AA mice, 1st injection [9, 12]: normal glutamate response
glutamate and dopamine response, Grm5AA/AA mice, 4th injection ([9]; 10 mg/kg, WT n = 7, Grm5AA/AA n = 9, P < 0.05): blunted neurotransmitter responsiveness
glutamate and dopamine response, Homer1a−/− mice, 1st injection ([9]; 30 mg/kg, n = 8 each group): normal glutamate and dopamine responses
glutamate and dopamine response, Homer1a−/− mice, 4th injection ([9]; 30 mg/kg, n = 8 each group, P < 0.05): blunted neurotransmitter responsiveness

O=C(O)[C@@H]1[C@H](C(=O)O)NCCN1C(=O)c1ccc2c(ccc3ccccc32)c1 [PPDA]
block of mGluR5-SIC by PPDA (NMDA receptors; 0.2 μM): blocked

mGluR5(T1123A, S1126A): mutant that prevents phosphorylation at both sites
GST-Pin1 binding to full-length mGluR5 (GST-Pin1): did not bind

mGluR5(T1123A): mutant that prevents phosphorylation at T1123
GST-Pin1 binding to full-length mGluR5 (GST-Pin1): bound

Ac–Phe–Phe–pSer-Ψ[(Z)CH=C]-Pro–Arg–NH2 [Pin1 peptide mimic inhibitor]
effect of Pin1 peptide on BDNF potentiation of mGluR5-SIC (mGluR5-SIC [1]): blocked
